Reference: patent publication US20190241569A1, “3-(ARYL OR HETEROARYL) METHYLENEINDOLIN-2-ONE DERIVATIVES AS INHIBITORS OF CANCER STEM CELL PATHWAY KINASES FOR THE TREATMENT OF CANCER” (Boston Biomedical, Inc., priority 2013, published 2019)
Read-outs that look alike come from different tables or passages of the source.

Key:
Type in all cases: cell-based
[1] = system: ACHN CSC; assay: Cancer stem cells, Cell Titer-Glo 72 hours (Test Example 3); conditions: Homo sapiens, ACHN, 72 h
[2] = system: FaDu; assay: Bulk cancer cells, Cell Titer-Glo 72 hours (Test Example 2); conditions: Homo sapiens
Procedure: (§1) Tubes of 3× drug (60 uM in 500 uL complete media) were prepared from 5 mM stock solutions in DMSO. […] To treat cells, 50 uL of drug from the dilution plate was removed and added to the cell plates. […] Cells were harvested 72 hours after drug addition using Cell Titer-Glo (Promega) and luminescence measured on a plate reader.

[3] = system: ACHN; assay: as above; conditions: Homo sapiens, ACHN, 72 h
Procedure: as §1

[4] = system: A549; assay: as above; conditions: Homo sapiens
Procedure: as §1

[5] = system: A549 CSC; assay: Cancer stem cells, Cell Titer-Glo 72 hours (Test Example 3); conditions: Homo sapiens
[6] = system: p-RPS6 Ser240/244; assay: Kinase inhibition, Western blot in HeLa cells (Test Example 5); conditions: Homo sapiens, 6 hours, DMSO = 100, read-out: p-RPS6 Ser240/244 Relative Intensity (%)
Procedure: (§2) HeLa cells were treated with 5 uM of the indicated compound for 6 hours. Following compound incubation, cells were washed twice with ice-cold PBS and lysed in lysis buffer (50 mM HEPES, pH 7.5, 1% Nonidet P40, 150 mM NaCl, 1 mM EDTA, 1× protease inhibitor cocktail (Promega)). 30 micrograms of soluble protein was separated by SDS-PAGE and transferred to PVDF membranes. Primary antibodies against p-AMPK Thr172, p-RPS6 Ser235/236, p-RPS6 Ser240/244, and Tubulin (Cell Signaling Technology) were used. The antigen-antibody complexes were visualized by enhanced chemiluminescence (BioRad). The results are shown below in Tables 17A-17E.

[7] = system: p-AMPK Thr172; assay: as above; conditions: Homo sapiens, 6 hours, DMSO = 100, read-out: p-AMPK Relative Intensity (%)
Procedure: as §2

[8] = system: p-RPS6 Ser235/236; assay: as above; conditions: Homo sapiens, 6 hours, DMSO = 100, read-out: p-RPS6 Ser235/236 Relative Intensity (%)
Procedure: as §2

[9] = system: FaDu CSC; assay: Cancer stem cells, Cell Titer-Glo 72 hours (Test Example 3); conditions: Homo sapiens, FaDu, 72 h

IC50 [1]	IC50 [2]	IC50 [3]	IC50 [4]	IC50 [5]	IC50 [9]	SMILES	activity at 5 µM ([6]; 5 uM)	activity at 5 µM ([7]; 5 uM)	activity at 5 µM ([8]; 5 uM)	activity at 5 µM ([6]; 5 uM compound, Western blot)	activity at 5 µM ([7]; 5 uM compound, Western blot)	activity at 5 µM ([8]; 5 uM compound, Western blot)
0.65 µM	2.72 µM	5.38 µM	2.02 µM	3.79 µM	4.81 µM	CCN(CC)CCNC(=O)c1c(C)[nH]c(/C=C2\C(=O)Nc3ccc(-c4ccc(-c5ccccc5)cn4)cc32)c1C [Example 197]	82%	118%	61%	–	–	–
1.86 µM	2.77 µM	3 µM	2.91 µM	3.9 µM	2.06 µM	CCN(CC)CCNC(=O)c1c(C)[nH]c(/C=C2\C(=O)Nc3c2cccc3-c2ccc3cc[nH]c3c2)c1C [Example 285]	–	–	–	44%	39%	29%
16.2 µM	19.6 µM	19.8 µM	13.1 µM	30.3 µM	12.2 µM	Cc1cc(C)c(/C=C2\C(=O)Nc3cccc(-c4ccncc4)c32)[nH]1 [Example 272]	–	–	–	47%	75%	50%
0.05 µM	1.58 µM	1.64 µM	1.34 µM	1.7 µM	0.48 µM	Cc1cc(C)c(/C=C2\C(=O)Nc3ccc(-c4csc(C5CCCNC5)n4)cc32)[nH]1 (stereo not shown) [Example 140]	34%	69%	6%	–	–	–
0.5 µM	0.7 µM	1.38 µM	3.06 µM	6.99 µM	1.85 µM	CCN(CC)CCNC(=O)c1c(C)[nH]c(/C=C2\C(=O)Nc3ccc(-c4csc(-c5ccc(O)cc5)n4)cc32)c1C [Example 126]	88%	47%	79%	–	–	–
10.9 µM	36.3 µM	16.4 µM	21.5 µM	27.5 µM	6.73 µM	CCN(CC)CCNC(=O)c1c(C)[nH]c(/C=C2\C(=O)Nc3c2cccc3-c2cncnc2)c1C [Example 282]	–	–	–	72%	60%	71%
0.5 µM	5.41 µM	15.2 µM	5.41 µM	4.19 µM	2.99 µM	Cc1[nH]c(/C=C2\C(=O)Nc3c2cccc3-c2csc(-c3ccccc3)n2)c(C)c1C(=O)N1CCN(C)CC1 [Example 10]	32%	122%	2%	–	–	–
0.28 µM	3.75 µM	3.2 µM	1.96 µM	1.57 µM	1.26 µM	CCN(CC)CCNC(=O)c1c(C)[nH]c(/C=C2\C(=O)Nc3c2cccc3-c2csc(-c3ccccc3)n2)c1C [Example 9]	32%	144%	2%	–	–	–
17.5 µM	20.8 µM	21.9 µM	17.7 µM	34.7 µM	–	COc1ncc(-c2cccc3c2NC(=O)/C3=C\c2[nH]c(C)cc2C)cn1 [Example 275]	–	–	–	54%	96%	57%
1.06 µM	2.82 µM	1.31 µM	0.84 µM	3.9 µM	4.31 µM	CCN(CC)CCNC(=O)c1c(C)[nH]c(/C=C2\C(=O)Nc3ccc(-c4cccnc4)cc32)c1C [Example 210]	31%	8%	1%	–	–	–
0.97 µM	1.37 µM	1.37 µM	1.74 µM	0.62 µM	0.11 µM	CCN(CC)CCNC(=O)c1c(C)[nH]c(/C=C2\C(=O)Nc3ccc(-c4csc(-c5ccccc5)n4)nc32)c1C [Example 118]	42%	35%	5%	–	–	–
0.4 µM	1.73 µM	1.52 µM	1.43 µM	2.47 µM	0.17 µM	Cc1[nH]c(/C=C2\C(=O)Nc3ccc(-c4csc(-c5ccccc5)n4)nc32)c(C)c1C(=O)NCCN1CCCC1 [Example 119]	51%	41%	13%	–	–	–
1.97 µM	6.23 µM	1.68 µM	3.36 µM	2.23 µM	2.2 µM	CCN(CC)CCNC(=O)c1c(C)[nH]c(/C=C2\C(=O)Nc3c2cccc3-c2cncc(C)c2)c1C [Example 283]	–	–	–	59%	50%	47%
32 µM	26.4 µM	16 µM	21.2 µM	32 µM	–	Cc1cncc(-c2cccc3c2NC(=O)/C3=C\c2[nH]c(C)cc2C)c1 [Example 280]	–	–	–	75%	103%	74%
0.39 µM	4.74 µM	11.6 µM	26.3 µM	1.22 µM	1.03 µM	Cc1[nH]c(/C=C2\C(=O)Nc3cc(-c4csc(-c5ccccc5)n4)ccc32)c(C)c1C(=O)N1CCN(C)CC1 [Example 8]	73%	150%	33%	–	–	–
0.25 µM	3.09 µM	3.66 µM	4.3 µM	8.25 µM	1.41 µM	CCN(CC)CCNC(=O)c1c(C)[nH]c(/C=C2\C(=O)Nc3ccc(-c4ccc(-c5ccccc5)o4)cc32)c1C [Example 56, (Z)-N-(2-(diethylamino)ethyl)-2,4-dimethyl-5-((2-oxo-5-(5-phenylfuran-2-yl)indolin-3-ylidene)methyl)-1H-pyrrole-3-carboxamide]	64%	144%	19%	–	–	–
4.99 µM	6.74 µM	6.39 µM	6.85 µM	12.6 µM	4.41 µM	CCN(CC)CCNC(=O)c1c(C)[nH]c(/C=C2\C(=O)Nc3c2cccc3-c2ccncc2)c1C [Example 284]	–	–	–	65%	56%	60%
0.26 µM	2.55 µM	1.12 µM	1.4 µM	3 µM	2.96 µM	Cc1cc(C)c(/C=C2\C(=O)Nc3ccc(-c4ccc5cn[nH]c(=O)c5c4)cc32)[nH]1 [Example 240]	24%	39%	1%	–	–	–
2.71 µM	3.81 µM	3.64 µM	5.32 µM	6.87 µM	1.92 µM	CCN(CC)CCNC(=O)c1c(C)[nH]c(/C=C2\C(=O)Nc3c2cccc3-c2cccnc2OC)c1C [Example 286]	–	–	–	54%	31%	48%

SMILES	IC50 [1]	IC50 [2]	IC50 [3]	IC50 [4]	IC50 [5]	IC50 [9]	activity at 5 µM ([6]; 5 uM)	activity at 5 µM ([7]; 5 uM)	activity at 5 µM ([8]; 5 uM)	activity at 5 µM ([6]; 5 uM compound, Western blot)	activity at 5 µM ([7]; 5 uM compound, Western blot)	activity at 5 µM ([8]; 5 uM compound, Western blot)
CCN(CC)CCNC(=O)c1c(C)[nH]c(/C=C2\C(=O)Nc3cccc(-c4ccc(-c5ccccc5)cc4)c32)c1C [Example 109]	0.33 µM	1.11 µM	1.6 µM	5.09 µM	4.32 µM	0.28 µM	23%	8%	2%	–	–	–
